Like-named read-outs stand apart in the source and are kept apart here.
Columns and labels:
[1] = tested on: scopolamine-induced swimming hyperactivity; experiment: scopolamine induced swimming test (SIS), reversal of scopolamine-induced swimming hyperactivity; assay type: in vivo, laboratory rats (b65); mice (b66); conditions: for inhibition in vivo at 0.32 mg/kg / inhibition in vivo at 3.2 mg/kg / inhibition in vivo at 32 mg/kg: Rattus norvegicus; for inhibition in vivo at 0.32 mg/kg: read-out: Percent Reversal Swimming Hyperactivity, Dose 0.32 mg/kg, SC; for inhibition in vivo at 3.2 mg/kg: read-out: Percent Reversal Swimming Hyperactivity, Dose 3.2 mg/kg, SC; for inhibition in vivo at 32 mg/kg: read-out: Percent Reversal Swimming Hyperactivity, Dose 32 mg/kg, SC; for reversal of scopolamine swimming hyperactivity: scopolamine-treated rats
Method: The biological activity of compounds of the present invention was evaluated using the "scopolamine induced swimming test" (SIS). This screen evaluated the ability of the test compounds to reverse the hyperactive swimming behavior of laboratory rats given scopolamine. in this test, untreated rats will generally swim between 20 to 30 meters during a five-minute test period. […] We have discovered unexpectedly that α2-adrenergic antagonists including the compounds in this application also reverse this swimming hyperactivity, perhaps through indirect stimulation of the cholinergic system.
SIS values are reported as the percent reversal of scopolamine, and are determined as follows: [formula] where U, SDT, and ST represent, respectively, the mean activity level in meters swum of untreated, scopolamine-and-drug-treated, and scopolamine-treated mice.

[2] = biological target: α1-adrenergic binding site; experiment: binding at the α1-adrenergic binding site; conditions: read-out: α1 IC50 (Nanomolar)
Method: (§1) The binding of representative compounds of this invention at the α1-adrenergic binding site was measured using the protocol described by Hornung, R., et al, Archiv. Pharm., 308:223 (1979). Similarly, the binding at the α2:adrenergic binding site was measured using the method of Rouot, B. R., et al, Life Sci., 25: 769 (1979). The data are presented in Table 2 and illustrate the α2 selectivity of the compounds.

[3] = tested on: α2-adrenergic binding site; experiment: binding at the α2-adrenergic binding site; conditions: for α1/α2: ratio of IC50 α1/α2; for IC50: read-out: α2 IC50 (Nanomolar)
Method: The α2 binding sites are presynaptic and are involved in the control of release of norepinephrine. A compound which acts selectively as an α2-adrenergic antagonist acts to increase noradrenergic activity. Such increases in noradrenergic activity are related to improved cognitive function in animals.
as §1

[4] = tested on: spatial working memory in hippocamally-deficient mice; experiment: Mouse Water Maze (MWM) test; assay type: in vivo, laboratory mice; conditions: read-out: minimal effective dose (MED)
Method: This compound was tested in the Mouse Water Maze (MWM) test which is a direct test of spatial cognitive skill in laboratory mice. This test, which is described in Morris, R., J. Neurosci. Meth., 11: 47-60 (1984), measures the effect of a test drug on spatial working memory in hippocamally-deficient mice.

[5] = 0.32 mg/kg, SC, vs scopolamine 0.1 mg/kg, five-minute test
[6] = 3.2 mg/kg, SC, vs scopolamine 0.1 mg/kg, five-minute test
[7] = 32 mg/kg, SC, vs scopolamine 0.1 mg/kg, five-minute test

SMILES	inhibition in vivo at 0.32 mg/kg [1, 5]	inhibition in vivo at 3.2 mg/kg [1, 6]	inhibition in vivo at 32 mg/kg [1, 7]	other results
c1ccc(Nc2ccncc2)cc1 [Compound 1, N-Phenyl-4-pyridinamine]	27%	22%	57%	
Cc1cccc(Nc2ccncc2)c1 [Compound 2, N-(3-Methylphenyl)-4-pyridinamine]	52%	36%	66%	
Cc1ccc(Nc2ccncc2)cc1 [Compound 3, N-(4-Methylphenyl)-4-pyridinamine]	10%	25%	100%	IC50 [2]: 1.6 µM; α1/α2 [3]: 43; IC50 [3]: 37 nM
Clc1cccc(Nc2ccncc2)c1 [Compound 4, N-(3-Chlorophenyl)-4-pyridinamine]	0%	27%	75%	IC50 [2]: 7.5 µM; selectivity for binding at the α2-adrenergic site ([3]; from data in Table 2): high degree of selectivity for binding at the α2-adrenergic site; α1/α2 [3]: 56; IC50 [3]: 133 nM; minimal effective dose [4]: 3.2 mg/kg
FC(F)(F)c1cccc(Nc2ccncc2)c1 [Compound 5, N-[3-(Trifluoromethyl)phenyl]-4-pyridin-amine]	0%	0%	57%	
FC(F)(F)c1ccc(Nc2ccncc2)cc1 [Compound 6, N-[4-(Trifluoromethyl)phenyl]-4-pyridin-amine]	0%	16%	55%	
COc1cccc(Nc2ccncc2)c1 [Compound 7, N-(3-Methoxyphenyl)-4-pyridinamine]	23%	62%	31%	
O=[N+]([O-])c1cccc(Nc2ccncc2)c1 [Compound 8, N-(3-Nitrophenyl)-4-pyridinamine]	40%	39%	70%	
Nc1ccccc1Nc1ccncc1 [Compound 9, N-4-Pyridinyl-1,2-benzenediamine]	15%	18%	72%	
Nc1cccc(Nc2ccncc2)c1 [Compound 10, N-4-Pyridinyl-1,3-benzenediamine]	47%	0%	41%	
CN(C)c1cccc(Nc2ccncc2)c1 [Compound 11, N,N-Dimethyl-N'-4-pyridinyl-1,3-benzene-diamine]	15%	4%	61%	
COC(=O)c1cccc(Nc2ccncc2)c1 [Compound 12, 3-(4-Pyridinylamino)benzoic acid, methyl ester]	15%	0%	8%	
Clc1ccc(Nc2ccncc2)c(Cl)c1 [Compound 13, N-(2,4-Dichlorophenyl)-4-pyridinamine]	0%	24%	0%	
Clc1ccc(Nc2ccncc2)cc1Cl [Compound 14, N-(3,4-Dichlorophenyl)-4-pyridinamine]	31%	37%	64%	IC50 [2]: > 1 µM; α1/α2 [3]: > 8.5; IC50 [3]: 118 nM
O=[N+]([O-])c1cc(Nc2ccncc2)ccc1Cl [Compound 15, N-(4-Chloro-3-nitrophenyl)-4-pyridinamine]	26%	0%	0%	
Cc1ccc(Nc2ccncc2)c([N+](=O)[O-])c1 [Compound 16, N-(4-Methyl-2-nitrophenyl)-4-pyridinamine]	0%	3%	14%	
CC(=O)N(c1ccncc1)c1ccc(C)cc1 [Compound 17, N-(4-Methylphenyl)-N-4-pyridinylacetamide]	35%	56%	21%	IC50 [2]: > 10 µM; α1/α2 [3]: > 1.9; IC50 [3]: 5400 nM
CC(=O)N(c1ccncc1)c1ccc(Cl)c(Cl)c1 [Compound 18, N-(3,4-Dichlorophenyl)-N-4-pyridinylacet-amide]	33%	34%	30%	
COC(=O)N(c1ccncc1)c1ccc(C)cc1 [Compound 19, (4-Methylphenyl)-4-pyridinylcarbamic acid, methyl ester]				inhibition in vivo at 0.32 mg/kg ([1]; sc): 36%; inhibition in vivo at 3.2 mg/kg ([1]; sc): 20%; inhibition in vivo at 32 mg/kg ([1]; sc): 17%
COC(=O)N(c1ccncc1)c1ccc(Cl)c(Cl)c1 [Compound 20, (3,4-Dichlorophenyl)-4-pyridinylcarbamic acid, methyl ester]				inhibition in vivo at 0.32 mg/kg ([1]; sc): 6%; inhibition in vivo at 3.2 mg/kg ([1]; sc): 0%; inhibition in vivo at 32 mg/kg ([1]; sc): 9%
COC(=O)C1=CCCN(C)C1 [arecoline, reference compound]				reversal of scopolamine swimming hyperactivity [1]: can be reversed
CN(C)C(=O)Oc1cccc([N+](C)(C)C)c1 [neostigmine, reference compound]				reversal of scopolamine swimming hyperactivity [1]: does not reverse the effect of scopolamine
CNC(=O)Oc1ccc2c(c1)[C@]1(C)CCN(C)[C@@H]1N2C [physostigmine, reference compound]				reversal of scopolamine swimming hyperactivity [1]: can be reversed
C[N+]1(C)C2CC(OC(=O)C(CO)c3ccccc3)CC1C1OC12 (stereo not shown) [scopolamine methyl nitrate, reference compound]				behavioral changes ([1]; same conditions as scopolamine): does not produce any behavioral changes
CN1[C@@H]2C[C@@H](OC(=O)[C@H](CO)c3ccccc3)C[C@H]1[C@@H]1O[C@@H]12 [scopolamine, reference compound]				increase of swimming distances above baseline values ([1]; scopolamine 0.1 mg/kg, five-minute test period, rats): 75-125%
